Experimental data reported in patent US6627641B1, “Antimalarial naphthylisoquinoline alkaloids and pharmaceutical compositions and medical uses thereof” (The United States of America as represented by the …, priority 1994, dated 2003).
Converted amounts (≈) assume the structure as drawn.

Assays:
[1] = tested on: P. falciparum (NF54 strain, clone A149); test: In vitro 3H-hypoxanthine incorporation test with P. falciparum NF 54; format: cell-based, Plasmodium falciparum; conditions: NF 54, clone A149; six repeats; max. concentration 50 or 5 μg/ml
Description: Continuous in vitro cultures of asexual erythrocytic stages of P. falciparum (strain NF 54/64, clone A1A9) were maintained following essentially the method of Trager and Jensen (Science, 193, 673-675, 1976) at 37° C. under an atmosphere of 5% CO2, 5% O2, and 90% N2. The host cells were human erythrocytes (A or O Rh+). The culture medium was RPMI 1640 (Gibco), containing HEPES (BDH; 4.57 gL^−1), glucose (Sigma; 1.54 gL^−1), 5% NaHCO3 (Merck; 34.78 mlL^−1), and gentamycin (Merck; 8.70 mlL^−1) supplemented with 10% human plasma (A Rh+). Parasites were subinoculated every 3-4 days with initial conditions of 1% parasitemia and 1% hematocrit.
(§1) In vitro testing with P. falciparum was as follows. Each compound was dissolved in DMSO at a concentration of 20 mg ml^−1. These solutions were further diluted with physiological saline to obtain a stock solution of 500 μg ml^−1. Each test substance was applied in a series of seven, 4-fold dilutions (maximum concentrations 50 or 5 μg ml^−1). Each compound was tested in 6-fold repeats. Chloroquine was tested similarly, as a positive control.
(§2) The test protocol was performed in vitro, based upon the method of Desjardins, et al. (Antimicrobial Agents Chemother., 16, 710-715, 1979). The parasites (200 μl of a suspension with initial parasitemia of 0.5% and hematocrit of 1.5%) were incubated for 24 h in microtitre plates (Falcon MicroTest III) in hypoxanthine-free medium in the presence of 25 μl of test solution. The plates contained a negative control (6 wells with non-parasitized RBC's, no drug) and a positive control (6 wells with parasitized RBC's no drug). Thereafter, 25 μl of ^3H-hypoxanthine solution (Amersham) was added (0.5 μCi well ^−1), and the parasites were incubated for a further period of 18 h. Each well was harvested with a Cell Harvester (Nunc). The filter papers were dried for 2 h at 52° C., and their radioactivity was measured by liquid scintillation counting in Optiscint HiSafe (LKB Pharmacia).
(§3) The mean results, obtained as counts per min (cpm), were expressed as percentages of incorporation or growth inhibition. The sigmoid dose-response curve was then linearized by probit analysis with the aid of software provided by IWONL (Gent), adapted by G. Timperman and used to derive the IC50 values.

[2] = tested on: P. falciparum (K1 strain); test: In vitro 3H-hypoxanthine incorporation test with chloroquine-resistant P. falciparum K1; format: cell-based, Plasmodium falciparum
Description: Selected compounds were also tested against drug-resistant parasites. The method was the same as above except for the following modifications. The parasite used was the chloroquine-resistant strain, K1, maintained essentially according to Desjardins, et al. (supra, 1979). The culture medium was RPMI-1640 containing TES (Sigma; 7.64 gL^−1), glucose (BDH; 1.67 gL^−1), NaHCO3 (BDH; 1.94 gL^−1), and gentamycin (Nicholas; 30 mgL^−1) supplemented with 10% human serum (A RH+). Parasites were subinoculated every 3-4 days with initial conditions of 1% parasitemia and 2.5% hematocrit. For the testing, small aliquots of test material were dissolved in 20 μl EtOH and RPMI 1640 to give solutions of 1 or 10 mg ml^−1. Each was applied in a series of twelve, […] dilutions (final […] ranging from 50 to 1.19×10^−3 μg ml^−1). Chloroquine diphosphate (Sigma) was used in the same experiments as a reference and also in twelve, 4-fold dilutions (final concentrations 2×10^−5-1.19×10^−12M). Each compound was tested in duplicate.
Testing was performed in vitro based upon the method of Desjardins, et al (supra, 1979), as modified by O'Neill, et al. (Planta Med., 51, 394-399, 1985) and Ekong, et al. (Biochem. Pharmacol., 40, 297-301, 1990). The parasites (50 μl initial parasitemia of 1%, hematocrit of 5%) were incubated for 24 h in microtitre plates (Nunc) in normal (not hypoxanthine-depleted) medium in the presence of 50 μl of test solution. Controls were set up in each test by preparing 12-24 wells with non-parasitized RBC's and no test solution and 12-24 wells with parasitized RBC's and no test compound. Thereafter, 5 μl all of ^3H-hypoxanthine (Amersham) were added (0.2 μCi well ^−1), and the parasites incubated for a further period of 18 h. Each well was harvested with a Cell Harvester (Skatron). Glass fibre filters were dried briefly. Radioactivity was measured by liquid scintillation counting in Ecoscint (National Diagnostics).
The results obtained as cpm were expressed as percentages of incorporation of growth inhibition. The dose-related part of the sigmoidal curves obtained were linearized by regression analysis with the aid of software developed by S. Grant (I.SHTM) and used to calculate the IC50 values.

P. berghei (Anka) = test: In vitro 3H-hypoxanthine incorporation test with P. berghei (Anka); format: cell-based, Plasmodium berghei; conditions: Anka strain
Description: as §1, §2, §3
For experiments with P. berghei (Anka strain), the parasites were maintained, and the in vitro tests performed essentially the same as above, except for the following modification. In the case of tests using P. berghei, the parasites were incubated in the same conditions as for P. falciparum (above) except that the incubations were started immediately in the presence of the ^3H-hypoxanthine and for 24 hour total duration (i.e., no delay in the addition of the ^3H-hypoxanthine). As before, the incorporated radioactivity was used as a-measure for parasite growth.

[3] = tested on: Plasmodium berghei (Anka strain); test: In vivo antimalarial test in OF1 mice inoculated with P. berghei; conditions: for Parasitemia (%) from blood smears at day 4: N=6; for Parasitemia (%) at day 4 / Parasitemia (%) at day 10: average (95% CI)
Description: Outbred, female, six-week-old OF1 mice (six mice per group treated and nontreated [control]) were inoculated intraperitoneally on day 0 with 10^6 P. berghei (Anka strain) blood forms. Two hours later, they were administered orally 50 mg/kg of dioncopeltine A or dioncophylline B. A second, third, and fourth treatment (50 mg/kg each) was given after 24, 48 and 72 h, respectively (days 1, 2, and 3). […] The parasitemia (%) in the control (not drug-treated) group was 3.50 (range 3.02-3.97; N=6). In the dioncopeltine A treated group, the parasitemia was 0.03 (range 0.01-0.06; N=6); in the dioncophylline B treated group, the parasitemia was […] (range 0.66-3.07; N=6).
The in vivo antimalarial testing was performed as described above, except that more doses and different treatment schedules were employed, as described in Tables 3 and 4.

[4] = 50 mg/kg oral on days 0, 1, 2, 3, OF1 mice
[5] = 50 mg/kg/d oral, 1 day of treatment
[6] = 50 mg/kg/d oral, 2 days of treatment
[7] = 50 mg/kg/d oral, 3 days of treatment
[8] = 50 mg/kg/d oral, 4 days of treatment
[9] = oral treatment with 4×50 mg/kg/d

## COc1cc(O)c(-c2c(C)cc(OC)c3c(OC)cccc23)c2c1[C@H](C)N[C@@H](C)C2 [Ancistrocladine]
[1]
  IC50 P. falciparum NF54 strain: 18.353 µg/mL (≈ 45 µM)
[2]
  IC50 P. falciparum, K1 strain: 25.350 µg/mL (≈ 62.2 µM)
P. berghei (Anka)
  IC50 P. berghei, Anka: >50 µg/mL

## COc1cc(CO)c(-c2ccc3c(c2O)[C@@H](C)N[C@H](C)C3)c2cccc(O)c12 [Dioncopeltine A]
[1]
  IC50 P. falciparum NF54 strain: 0.021 µg/mL (≈ 0.0553 µM)
[2]
  IC50 P. falciparum, K1 strain: 0.330 µg/mL (≈ 0.87 µM)
P. berghei (Anka)
  IC50 P. berghei, Anka: 0.038 µg/mL (≈ 0.1 µM)
[3]; [4]
  Signs of toxicity or other side effects: In neither of the treated groups were any signs of toxicity or other side effects observed
  Parasitemia (%) from blood smears at day 4: 0.03%

## COc1cccc2c(-c3ccc4c(c3O)[C@@H](C)N[C@H](C)C4)c(C)cc(OC)c12 [Dioncophylline A]
[1]
  IC50 P. falciparum NF54 strain: 1.443 µg/mL (≈ 3.82 µM)
[2]
  IC50 P. falciparum, K1 strain: 0.860 µg/mL (≈ 2.28 µM)
P. berghei (Anka)
  IC50 P. berghei, Anka: 0.961 µg/mL (≈ 2.55 µM)

## COc1cc(C)cc2ccc(-c3ccc4c(c3O)[C@@H](C)N[C@H](C)C4)c(O)c12 [Dioncophylline B]
[1]
  IC50 P. falciparum NF54 strain: 0.224 µg/mL (≈ 0.616 µM)
[2]
  IC50 P. falciparum, K1 strain: 0.063 µg/mL (≈ 0.173 µM)
P. berghei (Anka)
  IC50 P. berghei, Anka: 0.228 µg/mL (≈ 0.627 µM)
[3]; [4]
  Parasitemia (%) from blood smears at day 4: 1.86%

## COc1cc(C)c(-c2ccc(O)c3c2C[C@@H](C)N[C@@H]3C)c2cccc(O)c12 [Dioncophylline C]
[1]
  IC50 P. falciparum NF54 strain: 0.005 µg/mL (≈ 0.0138 µM)
P. berghei (Anka)
  IC50 P. berghei, Anka: 0.015 µg/mL (≈ 0.0413 µM)
[3]; 3.125 mg/kg/d oral, days 0-3
  Parasitemia (%) at day 4: 5.36 (3.96 − 6.75) %
[3]; 6.25 mg/kg/d oral, days 0-3
  Parasitemia (%) at day 4: 4.42 (2.77 − 6.06) %
[3]; 12.5 mg/kg/d oral, days 0-3
  Parasitemia (%) at day 4: 3.36 (2.35 − 4.37) %
  Parasitemia (%) at day 10: 26.91 (0.00 − 60.36) %
[3]; 25 mg/kg/d oral, days 0-3
  Parasitemia (%) at day 4: 0.62 (0.00 − 1.34) %
  Parasitemia (%) at day 10: 29.82 (11.20 − 48.43) %
[3]; [5]
  Parasitemia (%) at day 4: 0.02 (0.00 − 0.05) %
  Parasitemia (%) at day 10: 7.87 (0.00 − 23.92) %
[3]; [6]
  Parasitemia (%) at day 4: 0.01 (0.00 − 0.02) %
  Parasitemia (%) at day 10: 0.41 (0.00 − 1.38) %
[3]; 50 mg/kg/d oral, 2 days of treatment, n = 5
  Number of OF1 negative (neg) at day 10: (2 0F1 neg)
[3]; [7]
  Parasitemia (%) at day 4: 0.00 (0.00 − 0.00) %
  Parasitemia (%) at day 10: 0.003 (0.000 − 0.012) %
[3]; 50 mg/kg/d oral, 3 days of treatment, n = 6
  Number of OF1 negative (neg) at day 10: (5 0F1 neg)
[3]; [8]
  Parasitemia (%) at day 4: 0.00 (0.00 − 0.00) %
  Parasitemia (%) at day 10: 0.00 (0.00 − 0.00) %
[3]; 50 mg/kg/d oral, 4 days of treatment, n = 6
  Number of OF1 negative (neg) at day 10: (6 0F1 neg)
[3]; 50 mg/kg/d oral, days 0-3
  Parasitemia (%) at day 4: 0.00 (0.00 − 0.00) %
  Parasitemia (%) at day 10: 0.00 (0.00 − 0.00) %
[3]; 100 mg/kg/d oral, days 0-3
  Parasitemia (%) at day 4: 0.00 (0.00 − 0.00) %
  Parasitemia (%) at day 10: 0.00 (0.00 − 0.00) %
[3]; [9]
  Development of erythrocytic forms of P. berghei: completely and permanently inhibited
  Indications of toxicity: no observed indications of any toxicity

## COc1cccc2c(-c3ccc4c(c3O)C(C)N(C)C(C)C4)c(C)cc(OC)c12 (stereo not shown) [N-methyl-dioncophylline A]
[1]
  IC50 P. falciparum NF54 strain: 13.637 µg/mL (≈ 34.8 µM)
[2]
  IC50 P. falciparum, K1 strain: 5.749 µg/mL (≈ 14.7 µM)
P. berghei (Anka)
  IC50 P. berghei, Anka: 9.207 µg/mL (≈ 23.5 µM)

## Ancistrobrevine D
[1]
  IC50 P. falciparum NF54 strain: 12.222 µg/mL
[2]
  IC50 P. falciparum, K1 strain: 10.440 µg/mL
P. berghei (Anka)
  IC50 P. berghei, Anka: 6.069 µg/mL
